Here are results for 15 compounds from PubChem BioAssay AID328 (DTP/NCI, 2004).

In this assay the test system is BDF1 mice, P388 leukemia ip, median survival T/C. The assay is described as follows: NCI In Vivo Anticancer Drug Screen. Data for tumor model P388 Leukemia (intraperitoneal) in B6D2F1 (BDF1) mice. To be noted: endpoint: median survival time, higher = longer survival. The procedure, abridged:
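Antitumour effect was judged in vivo: survival in drug-treated mice, normalised to that of vehicle-dosed controls, gives the reported T/C.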

[1] abbreviates: dose: 100.0 mg/kg/injection, schedule: Q01DX009 (ip), vehicle: saline.
The mark [2] stands for this setting: dose: 200.0 mg/kg/injection, schedule: Q01DX009 (ip), vehicle: saline.
Where [3] appears, read: dose: 400.0 mg/kg/injection, schedule: Q01DX009 (ip), vehicle: saline.
Where [4] appears, read: dose: 25.0 mg/kg/injection, schedule: Q01DX009 (ip), vehicle: Klucel (hydroxypropylcellulose) (HPC).
Where [5] appears, read: dose: 50.0 mg/kg/injection, schedule: Q01DX009 (ip), vehicle: Klucel (hydroxypropylcellulose) (HPC).
Setting [6] is: dose: 100.0 mg/kg/injection, schedule: Q01DX009 (ip), vehicle: Klucel (hydroxypropylcellulose) (HPC).
The mark [7] stands for this setting: dose: 100.0 mg/kg/injection, schedule: Q01DX009 (ip), vehicle: saline with Tween-80.
Where [8] appears, read: dose: 200.0 mg/kg/injection, schedule: Q01DX009 (ip), vehicle: Klucel (hydroxypropylcellulose) (HPC).
The mark [9] stands for this setting: dose: 12.5 mg/kg/injection, schedule: Q01DX009 (ip), vehicle: saline with Tween-80.
[10] abbreviates: dose: 50.0 mg/kg/injection, schedule: Q01DX009 (ip), vehicle: saline with Tween-80.
The mark [11] stands for this setting: dose: 100.0 mg/kg/injection, schedule: Q04DX003 (ip), vehicle: Klucel (hydroxypropylcellulose) (HPC).
The mark [12] stands for this setting: dose: 200.0 mg/kg/injection, schedule: Q04DX003 (ip), vehicle: Klucel (hydroxypropylcellulose) (HPC).
The mark [13] stands for this setting: dose: 400.0 mg/kg/injection, schedule: Q04DX003 (ip), vehicle: Klucel (hydroxypropylcellulose) (HPC).
[14] abbreviates: dose: 200.0 mg/kg/injection, schedule: Q01DX009 (ip), vehicle: saline with Tween-80.
[15] abbreviates: dose: 400.0 mg/kg/injection, schedule: Q01DX009 (ip), vehicle: saline with Tween-80.
Setting [16] is: dose: 6.25 mg/kg/injection, schedule: Q04DX003 (ip), vehicle: water.
Setting [17] is: dose: 12.5 mg/kg/injection, schedule: Q04DX003 (ip), vehicle: water.
Setting [18] is: dose: 25.0 mg/kg/injection, schedule: Q01DX009 (ip), vehicle: water.
[19] abbreviates: dose: 25.0 mg/kg/injection, schedule: Q04DX003 (ip), vehicle: water.
Setting [20] is: dose: 50.0 mg/kg/injection, schedule: Q01DX009 (ip), vehicle: water.
[21] abbreviates: dose: 50.0 mg/kg/injection, schedule: Q04DX003 (ip), vehicle: water.
The mark [22] stands for this setting: dose: 100.0 mg/kg/injection, schedule: Q04DX003 (ip), vehicle: water.

Molecules are shown by their SMILES. “And” between values parts separate entries of the source, which are not always exact repeats. Equal entries are not always repeated. Inconclusive results and toxic doses are left out. Residues, ends and D or L forms follow the SMILES beside them.

Take `CCOC(=O)CCN1CC(C)OC(C)C1` (centres undefined): the T/C was 100 % of control under setting [1], 109 % of control under setting [2] and 100 % of control under setting [3].

For the compound `Cc1cc(N)no1`, the T/C is, setting by setting: under setting [1], 92 % of control; (dose: 100.0 mg/kg/injection, schedule: Q04DX003 (ip), vehicle: saline) 104 % of control; under setting [2], 96 % of control; (dose: 200.0 mg/kg/injection, schedule: Q04DX003 (ip), vehicle: saline) 95 % of control; under setting [3], 92 % of control; (dose: 400.0 mg/kg/injection, schedule: Q04DX003 (ip), vehicle: saline) 100 % of control.

`C/C(=C\COc1ccc2ccc(=O)oc2c1)C1=CC(=O)C(C)(C)O1`: the T/C by setting is: under setting [4], 93 % of control; under setting [5], 94 % of control; (dose: 100.0 mg/kg/injection, schedule: Q01DX001 (ip), vehicle: saline with Tween-80) 100 % of control; under setting [6], 87 % of control; under setting [7], 115 % of control; (dose: 200.0 mg/kg/injection, schedule: Q01DX001 (ip), vehicle: saline with Tween-80) 103 % of control. Moreover, the T/C runs as follows: under setting [8], 95 % of control; (dose: 400.0 mg/kg/injection, schedule: Q01DX001 (ip), vehicle: saline with Tween-80) 100 % of control.

For the compound `COC(CNC(=O)Nc1cccnc1)[CH2][Hg][Cl]` (centres undefined), the T/C by setting is: under setting [9], 90 % of control; (dose: 25.0 mg/kg/injection, schedule: Q01DX009 (ip), vehicle: saline with Tween-80) 104 % of control; under setting [10], 100 % of control.

`OCc1cc2ccccc2cc1O`: the T/C is, setting by setting: under setting [11], 90 % of control; under setting [12], 109 % of control; under setting [13], 104 % of control.

`CCOC(=O)CCC(NC(=O)c1cc(Cl)c(N(C)S(=O)(=O)c2ccc(C)cc2)cc1Cl)C(=O)OCC` (centres undefined): the T/C runs as follows: (dose: 25.0 mg/kg/injection, schedule: Q01DX001 (ip), vehicle: saline sonified) 109 % of control; (dose: 50.0 mg/kg/injection, schedule: Q01DX001 (ip), vehicle: saline sonified) 104 % of control; (dose: 100.0 mg/kg/injection, schedule: Q01DX001 (ip), vehicle: saline sonified) 104 % of control.

Take `O=C(Nc1cccc(Cl)c1)c1cc(N=Nc2ccc([N+](=O)[O-])cc2Cl)ccc1O`: the T/C was 114 % of control under setting [4]; 114 % of control under setting [5]; 115 % of control (dose: 133.0 mg/kg/injection, schedule: Q04DX003 (ip), vehicle: Klucel (hydroxypropylcellulose) (HPC)); 161 % of control under setting [12]; 155 % of control under setting [13].

`COc1ccc(C2(C#N)CC2)cc1`: the T/C is 95 % of control under setting [7]; 91 % of control (dose: 100.0 mg/kg/injection, schedule: Q04DX003 (ip), vehicle: saline with Tween-80); 100 % of control under setting [14]; 100 % of control (dose: 200.0 mg/kg/injection, schedule: Q04DX003 (ip), vehicle: saline with Tween-80); 104 % of control under setting [15]; 108 % of control (dose: 400.0 mg/kg/injection, schedule: Q04DX003 (ip), vehicle: saline with Tween-80).

Turning to `O=C(O)C1(C(=O)O)CCC2(CCCCC2)CC1`, the T/C runs as follows: (dose: 3.12 mg/kg/injection, schedule: Q04DX003 (ip), vehicle: water) 98 % of control; (dose: 6.25 mg/kg/injection, schedule: Q01DX009 (ip), vehicle: water) 110 % of control; under setting [16], 102 % of control; (dose: 12.5 mg/kg/injection, schedule: Q01DX009 (ip), vehicle: water) 94 % of control; under setting [17], 102 % of control; under setting [18], 103 % of control. The T/C is, setting by setting: under setting [19], 101 % of control and 116 % of control; under setting [20], 100 % of control; under setting [21], 101 % of control and 103 % of control; under setting [22], 90 % of control.

`NCCCCC(N)C(=O)NC(CCCN=C(N)N)C(N)=O` (stereo not drawn) (H-Lys-Arg-NH2; configuration not given here): the T/C was 115 % of control under setting [16]; 112 % of control under setting [17]; 101 % of control under setting [18]; 104 % of control under setting [19]; 108 % of control under setting [20]; 97 % of control under setting [21]. For the same compound, the T/C is 111 % of control (dose: 100.0 mg/kg/injection, schedule: Q01DX009 (ip), vehicle: water); 104 % of control under setting [22]; 106 % of control (dose: 200.0 mg/kg/injection, schedule: Q01DX009 (ip), vehicle: water); 106 % of control (dose: 400.0 mg/kg/injection, schedule: Q01DX009 (ip), vehicle: water).

Consider `CCCCCCCCCCCCCC(C)NCc1ccccc1` (centres undefined), for which the T/C was 95 % of control (dose: 3.13 mg/kg/injection, schedule: Q01DX009 (ip), vehicle: saline with Tween-80); 100 % of control (dose: 6.25 mg/kg/injection, schedule: Q01DX009 (ip), vehicle: saline with Tween-80); 100 % of control under setting [9].

As to `Nc1cc(Nc2cccc(Cl)c2)nc(N)n1`, the T/C under setting [10] is 86 % of control.

Regarding `CCOC(=O)C(Cc1ccc(C)cc1)(NC(C)=O)C(=O)OCC`, the T/C was 92 % of control under setting [7], 99 % of control under setting [14] and 101 % of control under setting [15].

Take `Cc1ccc(NCCN2CCCCC2)c2c(=O)c3ccccc3sc12`: the T/C is, setting by setting: under setting [6], 115 % of control; under setting [11], 115 % of control; under setting [8], 110 % of control; under setting [12], 115 % of control; (dose: 264.0 mg/kg/injection, schedule: Q01DX009 (ip), vehicle: Klucel (hydroxypropylcellulose) (HPC)) 150 % of control; (dose: 264.0 mg/kg/injection, schedule: Q04DX003 (ip), vehicle: Klucel (hydroxypropylcellulose) (HPC)) 118 % of control and 120 % of control. Moreover, the T/C under setting [13] was 122 % of control.

As to `CCOC(=O)C1CC(=O)c2ccccc2C1` (centres undefined), the T/C (dose: 12.5 mg/kg/injection, schedule: Q01DX009 (ip), vehicle: other) was 87 % of control; the T/C (dose: 100.0 mg/kg/injection, schedule: Q01DX009 (ip), vehicle: other) is 96 % of control; the T/C (dose: 200.0 mg/kg/injection, schedule: Q01DX009 (ip), vehicle: other) was 110 % of control.
